ChEMBL document CHEMBL4507268 (2021)

What was measured:
[1] = molecular target: Alpha-1D adrenergic receptor (Homo sapiens) (UniProt P25100); details: Compound concentration 10.0 uM
[2] = molecular target: T1, Serine/threonine-protein kinase Nek11 (Homo sapiens) (UniProt Q8NG66); details: Compound concentration 1.0 uM
T1 sequence (whole entry): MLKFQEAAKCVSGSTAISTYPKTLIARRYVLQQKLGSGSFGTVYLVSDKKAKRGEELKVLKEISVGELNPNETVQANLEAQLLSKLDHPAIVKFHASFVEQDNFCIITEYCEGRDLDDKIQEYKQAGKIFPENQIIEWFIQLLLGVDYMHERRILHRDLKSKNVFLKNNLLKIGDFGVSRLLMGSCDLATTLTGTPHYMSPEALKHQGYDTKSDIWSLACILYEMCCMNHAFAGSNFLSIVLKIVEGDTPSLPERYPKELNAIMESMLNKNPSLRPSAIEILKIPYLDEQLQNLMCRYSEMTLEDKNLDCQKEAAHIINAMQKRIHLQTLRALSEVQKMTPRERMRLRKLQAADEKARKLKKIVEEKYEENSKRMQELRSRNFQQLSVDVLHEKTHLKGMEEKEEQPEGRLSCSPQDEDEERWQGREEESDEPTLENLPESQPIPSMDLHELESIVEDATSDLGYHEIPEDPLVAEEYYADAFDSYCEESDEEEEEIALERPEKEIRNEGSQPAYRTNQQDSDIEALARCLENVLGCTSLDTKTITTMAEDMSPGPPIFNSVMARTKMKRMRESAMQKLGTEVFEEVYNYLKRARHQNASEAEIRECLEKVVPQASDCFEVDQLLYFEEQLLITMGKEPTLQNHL

[3] = molecular target: Ribosomal protein S6 kinase beta-1 (Homo sapiens) (UniProt P23443); details: Compound concentration 1.0 uM
Chain of Ribosomal protein S6 kinase beta-1 (Homo sapiens) (P23443 whole entry, looked up): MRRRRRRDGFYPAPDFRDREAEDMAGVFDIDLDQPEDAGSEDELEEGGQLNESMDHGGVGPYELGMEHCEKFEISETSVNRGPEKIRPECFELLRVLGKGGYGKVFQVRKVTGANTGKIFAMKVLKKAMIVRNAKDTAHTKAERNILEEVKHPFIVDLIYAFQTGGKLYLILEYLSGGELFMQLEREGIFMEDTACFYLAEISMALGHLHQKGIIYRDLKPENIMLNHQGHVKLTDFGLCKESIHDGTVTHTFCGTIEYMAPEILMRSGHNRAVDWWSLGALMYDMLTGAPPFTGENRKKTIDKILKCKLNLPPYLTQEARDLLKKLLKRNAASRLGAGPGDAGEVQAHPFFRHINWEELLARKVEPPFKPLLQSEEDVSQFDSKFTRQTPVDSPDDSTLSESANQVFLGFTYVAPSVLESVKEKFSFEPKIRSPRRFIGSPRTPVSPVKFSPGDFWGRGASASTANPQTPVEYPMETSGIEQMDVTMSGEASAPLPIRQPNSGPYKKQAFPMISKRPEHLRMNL

[4] = molecular target: Cyclin-dependent kinase-like 1 (Homo sapiens) (UniProt Q00532); details: Compound concentration 1.0 uM
[5] = molecular target: Tyrosine-protein kinase HCK (Homo sapiens) (UniProt P08631); details: Compound concentration 1.0 uM
Chain of Tyrosine-protein kinase HCK (Homo sapiens) (P08631 2-526 limits assumed): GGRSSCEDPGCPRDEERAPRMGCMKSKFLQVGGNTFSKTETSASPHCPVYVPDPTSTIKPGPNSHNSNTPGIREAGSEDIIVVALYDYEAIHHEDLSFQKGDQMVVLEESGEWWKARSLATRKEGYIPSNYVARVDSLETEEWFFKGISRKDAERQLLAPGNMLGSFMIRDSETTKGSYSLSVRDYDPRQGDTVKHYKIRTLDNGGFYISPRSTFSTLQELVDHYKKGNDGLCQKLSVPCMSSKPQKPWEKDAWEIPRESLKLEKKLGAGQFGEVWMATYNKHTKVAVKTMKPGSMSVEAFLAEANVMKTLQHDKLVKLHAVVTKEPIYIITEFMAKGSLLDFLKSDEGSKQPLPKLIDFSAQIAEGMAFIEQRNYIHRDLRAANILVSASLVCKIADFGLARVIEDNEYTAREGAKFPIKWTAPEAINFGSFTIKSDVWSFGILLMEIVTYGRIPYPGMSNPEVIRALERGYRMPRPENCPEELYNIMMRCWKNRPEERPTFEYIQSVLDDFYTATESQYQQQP

[6] = molecular target: Mitogen-activated protein kinase kinase kinase 20 (Homo sapiens) (UniProt Q9NYL2); details: Compound concentration 1.0 uM
[7] = molecular target: T2, NUAK family SNF1-like kinase 1 (Homo sapiens) (UniProt O60285); details: Compound concentration 1.0 uM
T2 sequence (whole entry): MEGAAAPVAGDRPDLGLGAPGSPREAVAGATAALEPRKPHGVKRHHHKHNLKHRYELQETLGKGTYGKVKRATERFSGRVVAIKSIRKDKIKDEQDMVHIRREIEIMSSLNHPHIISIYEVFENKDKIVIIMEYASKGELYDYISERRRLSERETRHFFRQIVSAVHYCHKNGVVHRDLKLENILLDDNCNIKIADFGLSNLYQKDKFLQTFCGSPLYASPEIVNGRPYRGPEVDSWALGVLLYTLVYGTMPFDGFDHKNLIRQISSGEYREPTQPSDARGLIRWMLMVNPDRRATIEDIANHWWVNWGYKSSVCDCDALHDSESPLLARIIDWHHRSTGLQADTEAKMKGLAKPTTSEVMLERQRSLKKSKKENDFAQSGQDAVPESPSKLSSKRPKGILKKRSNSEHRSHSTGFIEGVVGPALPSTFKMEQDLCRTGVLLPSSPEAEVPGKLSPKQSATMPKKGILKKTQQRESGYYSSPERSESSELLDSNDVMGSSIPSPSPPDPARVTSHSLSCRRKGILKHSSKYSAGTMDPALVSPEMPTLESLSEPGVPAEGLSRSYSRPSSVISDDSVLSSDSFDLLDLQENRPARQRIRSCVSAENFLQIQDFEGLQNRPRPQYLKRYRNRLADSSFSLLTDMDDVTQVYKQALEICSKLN

[8] = molecular target: Serine/threonine-protein kinase SIK1 (Homo sapiens) (UniProt P57059); details: Compound concentration 1.0 uM
Chain of Serine/threonine-protein kinase SIK1 (Homo sapiens) (P57059 whole entry): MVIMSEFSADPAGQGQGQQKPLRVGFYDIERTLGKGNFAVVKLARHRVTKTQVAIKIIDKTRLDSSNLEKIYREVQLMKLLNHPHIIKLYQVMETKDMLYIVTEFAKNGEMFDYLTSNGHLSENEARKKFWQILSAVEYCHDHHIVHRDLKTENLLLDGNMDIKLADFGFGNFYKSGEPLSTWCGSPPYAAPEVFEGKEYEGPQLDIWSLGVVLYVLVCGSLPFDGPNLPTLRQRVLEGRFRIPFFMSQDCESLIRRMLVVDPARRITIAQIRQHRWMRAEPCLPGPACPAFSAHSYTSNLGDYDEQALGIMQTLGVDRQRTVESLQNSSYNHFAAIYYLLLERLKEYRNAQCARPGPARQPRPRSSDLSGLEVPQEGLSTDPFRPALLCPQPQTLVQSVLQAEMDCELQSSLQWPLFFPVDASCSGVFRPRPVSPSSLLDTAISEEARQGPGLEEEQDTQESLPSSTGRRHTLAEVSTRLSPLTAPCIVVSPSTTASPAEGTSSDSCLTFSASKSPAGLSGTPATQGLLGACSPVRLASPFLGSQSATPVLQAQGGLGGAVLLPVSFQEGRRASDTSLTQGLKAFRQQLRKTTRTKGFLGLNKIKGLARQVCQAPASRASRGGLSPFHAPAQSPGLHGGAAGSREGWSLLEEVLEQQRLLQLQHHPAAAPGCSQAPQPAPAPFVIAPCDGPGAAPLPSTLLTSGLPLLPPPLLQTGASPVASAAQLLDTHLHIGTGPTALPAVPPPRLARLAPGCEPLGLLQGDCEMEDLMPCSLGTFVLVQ

[9] = molecular target: Protein kinase C eta type (Homo sapiens) (UniProt P24723); details: Compound concentration 1.0 uM
Chain of Protein kinase C eta type (Homo sapiens) (P24723 whole entry): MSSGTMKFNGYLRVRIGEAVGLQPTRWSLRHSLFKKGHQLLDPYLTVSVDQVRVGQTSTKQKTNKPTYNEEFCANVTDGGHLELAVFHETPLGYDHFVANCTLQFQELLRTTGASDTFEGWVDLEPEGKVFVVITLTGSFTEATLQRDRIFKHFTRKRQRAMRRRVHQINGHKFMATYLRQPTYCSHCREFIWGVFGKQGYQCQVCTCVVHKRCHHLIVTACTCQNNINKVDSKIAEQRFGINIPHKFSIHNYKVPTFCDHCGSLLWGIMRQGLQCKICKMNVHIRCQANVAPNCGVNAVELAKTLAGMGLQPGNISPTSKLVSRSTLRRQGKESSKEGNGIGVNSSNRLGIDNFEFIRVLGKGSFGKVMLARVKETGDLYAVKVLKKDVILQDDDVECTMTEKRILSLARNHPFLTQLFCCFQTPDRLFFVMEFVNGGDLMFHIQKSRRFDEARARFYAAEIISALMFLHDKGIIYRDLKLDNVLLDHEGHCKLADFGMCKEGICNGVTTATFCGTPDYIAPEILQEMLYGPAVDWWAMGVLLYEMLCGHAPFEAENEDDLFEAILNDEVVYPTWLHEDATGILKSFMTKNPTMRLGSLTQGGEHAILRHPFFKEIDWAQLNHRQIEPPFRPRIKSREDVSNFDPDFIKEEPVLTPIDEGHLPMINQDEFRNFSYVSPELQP

[10] = molecular target: Proto-oncogene tyrosine-protein kinase receptor Ret (Homo sapiens) (UniProt P07949); details: Compound concentration 1.0 uM
[11] = molecular target: Rho-associated protein kinase 2 (Homo sapiens) (UniProt O75116); details: Compound concentration 1.0 uM
Chain of Rho-associated protein kinase 2 (Homo sapiens) (O75116 whole entry, looked up): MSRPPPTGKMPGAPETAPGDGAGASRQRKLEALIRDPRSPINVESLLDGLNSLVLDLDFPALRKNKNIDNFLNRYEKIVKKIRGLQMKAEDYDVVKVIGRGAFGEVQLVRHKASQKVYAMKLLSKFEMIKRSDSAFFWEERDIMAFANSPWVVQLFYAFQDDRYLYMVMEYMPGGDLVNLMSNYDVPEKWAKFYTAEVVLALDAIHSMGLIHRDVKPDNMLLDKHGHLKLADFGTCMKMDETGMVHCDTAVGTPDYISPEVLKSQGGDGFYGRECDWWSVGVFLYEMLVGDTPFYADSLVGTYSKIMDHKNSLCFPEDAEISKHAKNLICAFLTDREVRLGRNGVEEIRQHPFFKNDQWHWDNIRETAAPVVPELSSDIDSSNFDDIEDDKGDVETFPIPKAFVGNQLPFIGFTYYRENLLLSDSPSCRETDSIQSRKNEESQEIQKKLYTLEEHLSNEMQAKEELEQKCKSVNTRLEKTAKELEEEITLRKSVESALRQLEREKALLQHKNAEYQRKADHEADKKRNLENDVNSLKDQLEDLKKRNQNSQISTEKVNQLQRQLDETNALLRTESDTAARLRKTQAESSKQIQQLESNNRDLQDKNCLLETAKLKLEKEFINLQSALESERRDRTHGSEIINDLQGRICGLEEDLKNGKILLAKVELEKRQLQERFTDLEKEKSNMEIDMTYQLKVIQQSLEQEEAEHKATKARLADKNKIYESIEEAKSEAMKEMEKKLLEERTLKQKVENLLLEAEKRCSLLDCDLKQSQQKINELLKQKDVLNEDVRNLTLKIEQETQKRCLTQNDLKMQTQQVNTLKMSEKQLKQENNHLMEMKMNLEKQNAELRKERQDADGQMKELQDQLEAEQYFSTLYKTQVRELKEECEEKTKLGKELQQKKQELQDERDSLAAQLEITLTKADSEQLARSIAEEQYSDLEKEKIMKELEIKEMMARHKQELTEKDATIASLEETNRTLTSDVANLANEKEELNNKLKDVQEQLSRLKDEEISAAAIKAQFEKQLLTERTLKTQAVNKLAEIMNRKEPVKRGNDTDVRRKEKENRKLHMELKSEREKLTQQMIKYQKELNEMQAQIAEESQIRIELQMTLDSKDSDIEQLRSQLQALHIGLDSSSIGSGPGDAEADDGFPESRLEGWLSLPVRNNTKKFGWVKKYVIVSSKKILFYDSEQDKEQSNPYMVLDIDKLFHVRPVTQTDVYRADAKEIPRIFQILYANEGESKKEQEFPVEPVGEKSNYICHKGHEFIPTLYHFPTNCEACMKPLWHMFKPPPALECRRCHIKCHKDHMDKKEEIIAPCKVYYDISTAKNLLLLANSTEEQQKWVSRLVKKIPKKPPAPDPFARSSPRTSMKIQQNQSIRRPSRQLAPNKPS

[12] = molecular target: Protein kinase C zeta type (Homo sapiens) (UniProt Q05513); details: Compound concentration 1.0 uM
Chain of Protein kinase C zeta type (Homo sapiens) (Q05513 whole entry): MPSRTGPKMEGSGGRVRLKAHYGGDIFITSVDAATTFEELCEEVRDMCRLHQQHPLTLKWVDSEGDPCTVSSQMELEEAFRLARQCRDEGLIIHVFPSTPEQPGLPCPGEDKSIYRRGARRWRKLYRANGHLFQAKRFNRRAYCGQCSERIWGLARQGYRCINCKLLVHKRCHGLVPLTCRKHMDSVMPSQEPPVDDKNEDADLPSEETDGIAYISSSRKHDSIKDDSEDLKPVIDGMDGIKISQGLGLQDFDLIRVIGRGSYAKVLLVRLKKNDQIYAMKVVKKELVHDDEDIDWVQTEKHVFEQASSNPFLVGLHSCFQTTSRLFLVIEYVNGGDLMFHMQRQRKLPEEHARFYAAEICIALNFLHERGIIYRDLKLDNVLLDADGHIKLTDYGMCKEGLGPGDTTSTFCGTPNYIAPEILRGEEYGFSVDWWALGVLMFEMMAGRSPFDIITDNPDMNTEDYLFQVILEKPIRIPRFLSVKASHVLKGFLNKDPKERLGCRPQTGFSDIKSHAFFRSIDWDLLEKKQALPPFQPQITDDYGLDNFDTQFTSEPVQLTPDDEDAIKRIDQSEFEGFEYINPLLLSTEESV

[13] = molecular target: T3, SNF-related serine/threonine-protein kinase (Homo sapiens) (UniProt Q9NRH2); details: Compound concentration 1.0 uM
T3 sequence (whole entry): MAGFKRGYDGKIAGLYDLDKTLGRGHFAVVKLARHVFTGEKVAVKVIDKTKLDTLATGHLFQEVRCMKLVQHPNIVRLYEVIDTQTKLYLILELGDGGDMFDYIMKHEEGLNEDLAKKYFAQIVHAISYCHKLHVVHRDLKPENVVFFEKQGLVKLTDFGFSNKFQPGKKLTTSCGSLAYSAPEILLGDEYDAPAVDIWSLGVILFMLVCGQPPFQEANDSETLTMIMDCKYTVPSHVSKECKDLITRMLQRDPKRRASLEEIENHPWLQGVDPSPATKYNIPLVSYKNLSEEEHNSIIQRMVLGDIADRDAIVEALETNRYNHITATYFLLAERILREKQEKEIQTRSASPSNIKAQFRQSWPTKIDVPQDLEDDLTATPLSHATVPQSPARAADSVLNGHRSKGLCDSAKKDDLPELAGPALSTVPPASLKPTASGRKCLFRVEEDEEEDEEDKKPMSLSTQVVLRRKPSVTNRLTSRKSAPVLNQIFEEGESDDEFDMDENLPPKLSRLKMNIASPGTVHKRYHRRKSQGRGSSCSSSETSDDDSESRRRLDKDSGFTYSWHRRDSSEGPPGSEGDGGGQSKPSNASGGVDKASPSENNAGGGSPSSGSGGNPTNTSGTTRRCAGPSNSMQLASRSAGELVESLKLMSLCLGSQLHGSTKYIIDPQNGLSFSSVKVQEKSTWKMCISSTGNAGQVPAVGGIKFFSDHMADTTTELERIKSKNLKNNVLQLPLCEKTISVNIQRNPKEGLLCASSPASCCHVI

Chain of Alpha-1D adrenergic receptor (Homo sapiens) (P25100 whole entry): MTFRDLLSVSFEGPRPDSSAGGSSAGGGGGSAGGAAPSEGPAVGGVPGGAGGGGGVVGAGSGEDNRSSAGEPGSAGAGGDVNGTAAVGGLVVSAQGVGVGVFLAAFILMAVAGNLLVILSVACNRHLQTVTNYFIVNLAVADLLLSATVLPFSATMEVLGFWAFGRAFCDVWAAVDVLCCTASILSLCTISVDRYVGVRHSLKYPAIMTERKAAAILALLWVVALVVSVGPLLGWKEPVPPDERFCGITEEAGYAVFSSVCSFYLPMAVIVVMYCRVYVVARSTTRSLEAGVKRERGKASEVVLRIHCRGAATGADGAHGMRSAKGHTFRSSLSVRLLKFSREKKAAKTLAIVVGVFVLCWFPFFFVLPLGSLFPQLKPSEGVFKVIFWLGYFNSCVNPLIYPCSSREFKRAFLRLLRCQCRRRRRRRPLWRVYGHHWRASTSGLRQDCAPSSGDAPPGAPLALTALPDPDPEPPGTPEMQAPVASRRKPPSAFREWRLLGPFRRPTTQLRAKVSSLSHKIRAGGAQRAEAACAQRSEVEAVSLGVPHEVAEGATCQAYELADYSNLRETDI

Cc1nc(C2CCN(C(=O)c3ccc(OC(F)(F)F)cc3N)CC2)c2ncc(N3CCN(C)CC3)cc2n1 [BAY-693]
inactive: inhibition [1] 5.29%

CN1CCN(c2cnc3c(C4CCN(C(=O)c5ccc(OC(F)(F)F)cc5N)CC4)ncnc3c2)CC1 [BAY-885]
inactive: % residual kinase activity [2] 104% | % residual kinase activity [3] 118% | % residual kinase activity [4] 115% | % residual kinase activity [5] 95% | % residual kinase activity [6] 100% | % residual kinase activity [7] 101% | % residual kinase activity [8] 99% | % residual kinase activity [9] 115% | % residual kinase activity [10] 122% | % residual kinase activity [11] 91% | % residual kinase activity [12] 114% | % residual kinase activity [13] 118%
